Experimental data reported in US20120245137A1 (Zalicus Pharmaceuticals Ltd., priority 2009, published 2012).

How the values were obtained:
Format in all cases: cell-based
[1] = biological target: N-type calcium channel subunits (α1B, α2δ, and β3a) (Homo sapiens, UniProt Q00975); assay: Block of Cav2.2 channel, whole cell voltage clamp, manual and PatchXpress; conditions: Table 5; table follows Assay Example 3 (whole cell voltage clamp / PatchXpress); assay not given
Method in brief: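 Percent block taken as current amplitude ratio with versus without compound, applied in rising doses; IC50 fitted where one cell received multiple doses. Protocol: 50 ms pulses to +20 mV at 0.067 Hz from […] or −90 mV holding; P/n leak subtraction, no junction-potential correction; manual and PatchXpress recordings.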

[2] = biological target: human α1G T-type channels (Homo sapiens, UniProt O43497); assay: T-type calcium channel block, whole cell patch clamp, α1G; conditions: HEK cells stably expressing human α1G; mainly non-inactivated protocol; values above 10,000 nM represented as 10000
Method in brief: (§1)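 Whole-cell voltage clamp on stably transfected HEK 293 lines carrying human α1H or α1G. Two voltage protocols used: non-inactivated pre-pulse for resting block, inactivated for voltage-dependent block; test agents perfused locally in external solution (0.1-0.01% DMSO) following ~10 min rest.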

[3] = biological target: human α1H T-type channels (Homo sapiens, UniProt O95180); assay: T-type calcium channel block, whole cell patch clamp, α1H; conditions: HEK cells stably expressing human α1H; mainly non-inactivated protocol; values above 10,000 nM represented as 10000
Method in brief: as §1

Chain of human α1H T-type channels (O95180 whole entry): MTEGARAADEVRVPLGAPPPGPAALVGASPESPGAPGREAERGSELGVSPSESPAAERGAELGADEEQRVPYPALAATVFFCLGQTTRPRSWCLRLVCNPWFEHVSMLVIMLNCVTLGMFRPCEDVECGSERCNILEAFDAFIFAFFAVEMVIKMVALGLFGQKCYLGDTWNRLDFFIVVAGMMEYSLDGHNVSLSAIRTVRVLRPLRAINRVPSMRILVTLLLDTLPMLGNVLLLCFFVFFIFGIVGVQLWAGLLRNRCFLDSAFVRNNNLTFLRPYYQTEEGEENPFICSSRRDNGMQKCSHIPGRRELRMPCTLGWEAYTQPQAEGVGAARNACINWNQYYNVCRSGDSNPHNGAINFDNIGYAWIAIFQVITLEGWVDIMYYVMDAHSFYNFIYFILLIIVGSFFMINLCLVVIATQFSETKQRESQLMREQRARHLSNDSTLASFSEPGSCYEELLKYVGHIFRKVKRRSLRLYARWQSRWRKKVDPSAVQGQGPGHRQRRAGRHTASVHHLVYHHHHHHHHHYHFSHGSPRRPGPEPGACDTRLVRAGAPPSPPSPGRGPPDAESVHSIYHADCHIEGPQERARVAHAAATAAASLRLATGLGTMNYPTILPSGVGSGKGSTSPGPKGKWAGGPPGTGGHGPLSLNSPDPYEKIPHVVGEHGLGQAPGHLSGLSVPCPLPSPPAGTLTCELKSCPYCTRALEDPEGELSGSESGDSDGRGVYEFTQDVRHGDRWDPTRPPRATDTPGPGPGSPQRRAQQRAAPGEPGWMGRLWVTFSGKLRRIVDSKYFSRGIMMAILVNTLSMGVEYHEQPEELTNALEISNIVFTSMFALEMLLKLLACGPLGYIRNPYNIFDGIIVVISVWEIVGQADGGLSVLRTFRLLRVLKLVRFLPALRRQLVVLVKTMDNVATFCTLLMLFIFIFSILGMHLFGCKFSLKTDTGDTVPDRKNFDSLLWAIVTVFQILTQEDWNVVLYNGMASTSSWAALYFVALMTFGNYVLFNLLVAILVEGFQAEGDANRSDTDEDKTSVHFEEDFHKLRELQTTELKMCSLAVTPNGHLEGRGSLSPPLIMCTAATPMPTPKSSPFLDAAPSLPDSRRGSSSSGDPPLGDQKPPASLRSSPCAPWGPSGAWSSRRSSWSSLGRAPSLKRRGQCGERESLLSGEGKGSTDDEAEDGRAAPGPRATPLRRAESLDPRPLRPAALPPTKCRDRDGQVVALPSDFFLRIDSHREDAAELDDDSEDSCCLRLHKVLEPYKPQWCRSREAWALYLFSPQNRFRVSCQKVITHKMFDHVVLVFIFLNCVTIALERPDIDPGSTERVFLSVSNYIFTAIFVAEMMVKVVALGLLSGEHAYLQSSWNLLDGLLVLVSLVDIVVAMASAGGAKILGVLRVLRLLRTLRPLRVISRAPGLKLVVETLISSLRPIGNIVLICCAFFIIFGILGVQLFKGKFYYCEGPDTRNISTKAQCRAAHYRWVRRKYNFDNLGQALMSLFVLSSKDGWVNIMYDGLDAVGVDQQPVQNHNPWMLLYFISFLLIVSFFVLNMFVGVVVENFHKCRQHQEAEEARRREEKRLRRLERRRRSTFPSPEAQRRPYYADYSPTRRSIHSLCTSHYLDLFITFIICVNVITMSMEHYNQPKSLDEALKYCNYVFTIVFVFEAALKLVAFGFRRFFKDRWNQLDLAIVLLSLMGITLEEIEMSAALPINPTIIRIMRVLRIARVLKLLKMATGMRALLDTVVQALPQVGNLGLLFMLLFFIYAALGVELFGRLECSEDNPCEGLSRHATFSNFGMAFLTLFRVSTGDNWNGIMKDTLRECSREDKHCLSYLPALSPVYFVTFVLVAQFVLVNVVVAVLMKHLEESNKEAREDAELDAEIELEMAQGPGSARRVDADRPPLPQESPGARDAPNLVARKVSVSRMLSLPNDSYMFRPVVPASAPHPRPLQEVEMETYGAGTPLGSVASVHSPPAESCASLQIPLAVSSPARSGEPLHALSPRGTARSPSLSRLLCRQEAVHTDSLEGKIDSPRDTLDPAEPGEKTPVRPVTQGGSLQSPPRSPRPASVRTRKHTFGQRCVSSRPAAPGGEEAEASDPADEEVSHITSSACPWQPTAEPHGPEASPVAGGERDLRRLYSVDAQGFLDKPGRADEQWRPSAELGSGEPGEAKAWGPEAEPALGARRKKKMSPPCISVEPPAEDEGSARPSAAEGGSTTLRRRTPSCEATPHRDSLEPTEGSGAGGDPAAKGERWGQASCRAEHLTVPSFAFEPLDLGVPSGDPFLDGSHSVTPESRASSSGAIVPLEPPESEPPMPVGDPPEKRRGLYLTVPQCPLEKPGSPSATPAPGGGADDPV
Chain of human α1G T-type channels (O43497 whole entry, the tested form may be a part): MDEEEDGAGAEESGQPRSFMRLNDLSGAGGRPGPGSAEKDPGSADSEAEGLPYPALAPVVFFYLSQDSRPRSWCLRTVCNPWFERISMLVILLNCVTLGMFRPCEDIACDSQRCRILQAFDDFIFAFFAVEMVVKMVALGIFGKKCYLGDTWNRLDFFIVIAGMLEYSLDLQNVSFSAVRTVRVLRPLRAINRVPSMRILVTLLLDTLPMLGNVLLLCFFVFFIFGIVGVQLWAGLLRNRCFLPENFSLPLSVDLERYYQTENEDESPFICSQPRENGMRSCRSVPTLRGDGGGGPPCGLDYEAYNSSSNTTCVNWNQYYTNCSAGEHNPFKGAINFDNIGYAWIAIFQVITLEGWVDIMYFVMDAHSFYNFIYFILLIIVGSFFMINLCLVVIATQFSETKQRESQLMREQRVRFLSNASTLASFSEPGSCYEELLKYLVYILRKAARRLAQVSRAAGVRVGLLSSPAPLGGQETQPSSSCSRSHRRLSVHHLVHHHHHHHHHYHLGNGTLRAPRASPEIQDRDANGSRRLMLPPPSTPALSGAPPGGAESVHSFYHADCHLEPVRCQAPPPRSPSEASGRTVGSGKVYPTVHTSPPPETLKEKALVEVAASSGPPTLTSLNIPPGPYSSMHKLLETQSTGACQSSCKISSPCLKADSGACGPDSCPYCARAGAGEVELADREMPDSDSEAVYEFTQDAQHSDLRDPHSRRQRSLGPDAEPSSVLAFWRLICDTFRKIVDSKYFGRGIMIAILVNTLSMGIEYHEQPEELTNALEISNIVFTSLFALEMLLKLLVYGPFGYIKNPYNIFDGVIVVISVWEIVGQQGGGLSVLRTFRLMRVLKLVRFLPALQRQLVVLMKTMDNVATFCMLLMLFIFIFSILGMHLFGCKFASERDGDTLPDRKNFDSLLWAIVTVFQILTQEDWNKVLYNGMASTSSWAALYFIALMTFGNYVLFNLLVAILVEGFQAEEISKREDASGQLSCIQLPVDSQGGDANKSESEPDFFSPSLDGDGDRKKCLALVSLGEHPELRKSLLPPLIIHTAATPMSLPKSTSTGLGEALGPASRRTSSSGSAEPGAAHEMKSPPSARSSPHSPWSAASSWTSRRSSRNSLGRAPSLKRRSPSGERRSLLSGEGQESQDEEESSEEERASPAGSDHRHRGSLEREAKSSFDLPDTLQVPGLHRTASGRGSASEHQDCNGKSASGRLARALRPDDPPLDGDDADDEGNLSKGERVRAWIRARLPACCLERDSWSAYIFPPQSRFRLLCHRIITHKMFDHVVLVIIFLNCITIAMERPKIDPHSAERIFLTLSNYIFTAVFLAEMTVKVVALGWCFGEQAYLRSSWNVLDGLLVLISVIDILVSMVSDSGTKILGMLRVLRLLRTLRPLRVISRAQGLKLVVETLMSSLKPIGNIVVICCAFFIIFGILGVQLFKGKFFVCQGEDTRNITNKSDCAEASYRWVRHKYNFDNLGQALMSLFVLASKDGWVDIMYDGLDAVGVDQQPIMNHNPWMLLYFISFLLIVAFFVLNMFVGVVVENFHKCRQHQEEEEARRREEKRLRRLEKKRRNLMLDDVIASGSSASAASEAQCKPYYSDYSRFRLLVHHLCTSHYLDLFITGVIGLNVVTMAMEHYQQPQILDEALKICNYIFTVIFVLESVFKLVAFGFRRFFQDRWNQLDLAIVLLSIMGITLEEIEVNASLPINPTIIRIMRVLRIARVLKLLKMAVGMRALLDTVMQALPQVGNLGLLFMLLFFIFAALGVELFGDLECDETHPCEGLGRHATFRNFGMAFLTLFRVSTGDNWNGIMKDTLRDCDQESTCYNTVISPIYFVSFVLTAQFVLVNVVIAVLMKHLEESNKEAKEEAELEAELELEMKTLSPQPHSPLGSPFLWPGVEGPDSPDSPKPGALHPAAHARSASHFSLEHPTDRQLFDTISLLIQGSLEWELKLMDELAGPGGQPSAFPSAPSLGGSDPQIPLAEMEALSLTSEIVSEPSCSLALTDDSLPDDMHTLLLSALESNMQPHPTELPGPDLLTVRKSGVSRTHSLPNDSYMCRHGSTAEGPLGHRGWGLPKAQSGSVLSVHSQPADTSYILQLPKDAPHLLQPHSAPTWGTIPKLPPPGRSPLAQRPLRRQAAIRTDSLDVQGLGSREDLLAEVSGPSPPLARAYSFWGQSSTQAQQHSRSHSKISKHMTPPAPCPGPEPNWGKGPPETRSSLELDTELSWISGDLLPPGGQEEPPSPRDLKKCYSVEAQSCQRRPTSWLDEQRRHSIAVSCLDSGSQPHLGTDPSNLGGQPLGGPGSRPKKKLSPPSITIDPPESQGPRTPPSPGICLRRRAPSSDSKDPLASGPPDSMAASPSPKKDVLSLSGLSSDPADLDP

Cn1nc(C(F)(F)F)cc1C(=O)NC[C@H]1CC[C@@H](S(=O)(=O)c2cccc(C(F)(F)F)c2)CC1 [Compound 32, 1-methyl-3-(trifluoromethyl)-N-(((1S,4S)-4-(3-(trifluoromethyl)phenylsulfonyl)cyclohexyl)methyl)-1H-pyrazole-5-carboxamide]
IC50 [1]: 440 nM
IC50 [2]: 500 nM
IC50 [3]: 2690 nM

O=C(CNC[C@H]1CC[C@@H](S(=O)(=O)c2cccc(C(F)(F)F)c2)CC1)NC1CCCCC1 [Compound 36, N-cyclohexyl-2-(((1S,4S)-4-(3-(trifluoromethyl)phenylsulfonyl)cyclohexyl)methylamino)acetamide]
IC50 [1]: 740 nM
IC50 [2]: 5250 nM
IC50 [3]: 5110 nM

O=C(CNC[C@H]1CC[C@@H](S(=O)(=O)c2cccc(C(F)(F)F)c2)CC1)NCC(F)(F)F [Compound 37, N-(2,2,2-trifluoroethyl)-2-(((1S,4S)-4-(3-(trifluoromethyl)phenylsulfonyl)cyclohexyl)methylamino)acetamide]
IC50 [1]: 1310 nM
IC50 [2]: 9280 nM
IC50 [3]: 3620 nM

O=C(N[C@H]1CC[C@@H](S(=O)(=O)c2cccc(C(F)(F)F)c2)CC1)c1cc(C(F)(F)F)ccn1 [Compound 42, 4-(trifluoromethyl)-N-((1S,4S)-4-(3-(trifluoromethyl)phenylsulfonyl)cyclohexyl)picolinamide]
IC50 [1]: 480 nM
IC50 [2]: 1510 nM
IC50 [3]: 2860 nM

O=C(N[C@H]1CC[C@@H](S(=O)(=O)c2cccc(C(F)(F)F)c2)CC1)c1cc(-c2ccc(F)cc2)n[nH]1 [Compound 46, 3-(4-fluorophenyl)-N-((1S,4S)-4-(3-(trifluoromethyl)phenylsulfonyl)cyclohexyl)-1H-pyrazole-5-carboxamide]
IC50 [1]: 1060 nM
IC50 [2]: 1250 nM
IC50 [3]: 910 nM

O=C(CN[C@H]1CC[C@@H](S(=O)(=O)c2cccc(C(F)(F)F)c2)CC1)NCC(F)(F)F [Compound 48, N-(2,2,2-trifluoroethyl)-2-((1S,4S)-4-(3-(trifluoromethyl)phenylsulfonyl)cyclohexylamino)acetamide]
IC50 [1]: 1650 nM
IC50 [2]: 1430 nM
IC50 [3]: 2330 nM

CC(C)(C)NC(=O)CN[C@H]1CC[C@@H](S(=O)(=O)c2cccc(C(F)(F)F)c2)CC1 [Compound 49, N-tert-butyl-2-((1S,4S)-4-(3-(trifluoromethyl)phenylsulfonyl)cyclohexylamino)acetamide]
IC50 [1]: 200 nM
IC50 [2]: > 10000 nM
IC50 [3]: > 10000 nM

CN(C(=O)CN[C@H]1CC[C@@H](S(=O)(=O)c2cccc(C(F)(F)F)c2)CC1)C(C)(C)C [Compound 50, N-tert-butyl-N-methyl-2-((1S,4S)-4-(3-(trifluoromethyl)phenylsulfonyl)cyclohexylamino)acetamide]
IC50 [1]: 90 nM
IC50 [2]: > 10000 nM
IC50 [3]: > 10000 nM

CC(C)NC(=O)CN[C@H]1CC[C@@H](S(=O)(=O)c2cccc(C(F)(F)F)c2)CC1 [Compound 52, N-isopropyl-2-((1S,4S)-4-(3-(trifluoromethyl)phenylsulfonyl)cyclohexylamino)acetamide]
IC50 [1]: 1540 nM
IC50 [2]: 860 nM
IC50 [3]: 790 nM

Cc1cc(NC(=O)CN[C@H]2CC[C@@H](S(=O)(=O)c3cccc(C(F)(F)F)c3)CC2)on1 [Compound 54, N-(3-methylisoxazol-5-yl)-2-((1S,4S)-4-(3-(trifluoromethyl)phenylsulfonyl)cyclohexylamino)acetamide]
IC50 [1]: 4630 nM
IC50 [2]: > 10000 nM
IC50 [3]: 7290 nM

O=C(CN[C@H]1CC[C@@H](S(=O)(=O)c2cccc(C(F)(F)F)c2)CC1)NC1CCCCC1 [Compound 56, N-cyclohexyl-2-((1S,4S)-4-(3-(trifluoromethyl)phenylsulfonyl)cyclohexylamino)acetamide]
IC50 [1]: 260 nM
IC50 [2]: 820 nM
IC50 [3]: 480 nM

O=C(CN[C@H]1CC[C@@H](S(=O)(=O)c2cccc(C(F)(F)F)c2)CC1)Nc1ccccn1 [Compound 57, N-(pyridin-2-yl)-2-((1S,4S)-4-(3-(trifluoromethyl)phenylsulfonyl)cyclohexylamino)acetamide]
IC50 [1]: 860 nM
IC50 [2]: 4940 nM
IC50 [3]: 1530 nM

O=C(N[C@H]1CC[C@H](S(=O)(=O)c2cccc(C(F)(F)F)c2)CC1)c1ccc(F)c(C(F)(F)F)c1 [Compound 58, 4-fluoro-3-(trifluoromethyl)-N-((1R,4R)-4-(3-(trifluoromethyl)phenylsulfonyl)cyclohexyl)benzamide]
IC50 [1]: 800 nM
IC50 [2]: 1850 nM
IC50 [3]: 1480 nM

O=C(N[C@H]1CC[C@H](S(=O)(=O)c2cccc(C(F)(F)F)c2)CC1)c1cc(F)cc(Cl)c1 [Compound 60, 3-chloro-5-fluoro-N-((1R,4R)-4-(3-(trifluoromethyl)phenylsulfonyl)cyclohexyl)benzamide]
IC50 [1]: 370 nM
IC50 [2]: 6440 nM
IC50 [3]: 3900 nM

O=C(N[C@H]1CC[C@H](S(=O)(=O)c2cccc(C(F)(F)F)c2)CC1)c1ccc(C(F)(F)F)cn1 [Compound 62, 5-(trifluoromethyl)-N-((1R,4R)-4-(3-(trifluoromethyl)phenylsulfonyl)cyclohexyl)picolinamide]
IC50 [1]: 3480 nM
IC50 [2]: 1080 nM
IC50 [3]: 550 nM

O=C(N[C@H]1CC[C@H](S(=O)(=O)c2cccc(C(F)(F)F)c2)CC1)c1cc(F)cc(C(F)(F)F)c1 [Compound 65, 3-fluoro-5-(trifluoromethyl)-N-((1R,4R)-4-(3-(trifluoromethyl)phenylsulfonyl)cyclohexyl)benzamide]
IC50 [1]: 550 nM
IC50 [2]: > 10000 nM
IC50 [3]: > 10000 nM

O=C(N[C@H]1CC[C@H](S(=O)(=O)c2cccc(C(F)(F)F)c2)CC1)C1(C(F)(F)F)CCC1 [Compound 66, 1-(trifluoromethyl)-N-((1R,4R)-4-(3-(trifluoromethyl)phenylsulfonyl)cyclohexyl)cyclobutanecarboxamide]
IC50 [1]: 8990 nM
IC50 [2]: > 10000 nM
IC50 [3]: > 10000 nM

CC(C)(C)NC(=O)CN[C@H]1CC[C@H](S(=O)(=O)c2cccc(C(F)(F)F)c2)CC1 [Compound 69, N-tert-butyl-2-((1R,4R)-4-(3-(trifluoromethyl)phenylsulfonyl)cyclohexylamino)acetamide]
IC50 [1]: 1650 nM
IC50 [2]: > 10000 nM
IC50 [3]: > 10000 nM

CN(C(=O)CN[C@H]1CC[C@H](S(=O)(=O)c2cccc(C(F)(F)F)c2)CC1)C(C)(C)C [Compound 70, N-tert-butyl-N-methyl-2-((1R,4R)-4-(3-(trifluoromethyl)phenylsulfonyl)cyclohexylamino)acetamide]
IC50 [1]: 1220 nM
IC50 [2]: 8810 nM
IC50 [3]: 2580 nM

Cc1cc(NC(=O)CN[C@H]2CC[C@H](S(=O)(=O)c3cccc(C(F)(F)F)c3)CC2)on1 [Compound 74, N-(3-methylisoxazol-5-yl)-2-((1R,4R)-4-(3-(trifluoromethyl)phenylsulfonyl)cyclohexylamino)acetamide]
IC50 [1]: 4950 nM
IC50 [2]: 1530 nM
IC50 [3]: 1210 nM

O=C(CN[C@H]1CC[C@H](S(=O)(=O)c2cccc(C(F)(F)F)c2)CC1)NC1CCCCC1 [Compound 76, N-cyclohexyl-2-((1R,4R)-4-(3-(trifluoromethyl)phenylsulfonyl)cyclohexylamino)acetamide]
IC50 [1]: 590 nM
IC50 [2]: 1030 nM
IC50 [3]: 510 nM

O=C(N[C@H]1CC[C@](F)(S(=O)(=O)c2cccc(C(F)(F)F)c2)CC1)c1cc(C(F)(F)F)ccn1 [Compound 79, N-((1R,4R)-4-fluoro-4-(3-(trifluoromethyl)phenylsulfonyl)cyclohexyl)-4-(trifluoromethyl)picolinamide]
IC50 [1]: 630 nM
IC50 [2]: 1190 nM
IC50 [3]: 440 nM

O=C(N[C@H]1CC[C@](F)(S(=O)(=O)c2cccc(C(F)(F)F)c2)CC1)c1nc2cc(C(F)(F)F)ccc2[nH]1 [Compound 80, N-((1R,4R)-4-fluoro-4-(3-(trifluoromethyl)phenylsulfonyl)cyclohexyl)-5-(trifluoromethyl)-1H-benzo[d]imidazole-2-carboxamide]
IC50 [1]: 4310 nM
IC50 [2]: 900 nM
IC50 [3]: 460 nM

O=C(N[C@H]1CC[C@](F)(S(=O)(=O)c2cccc(C(F)(F)F)c2)CC1)c1cc(F)cc(Cl)c1 [Compound 81, 3-chloro-5-fluoro-N-((1R,4R)-4-fluoro-4-(3-(trifluoromethyl)phenylsulfonyl)cyclohexyl)benzamide]
IC50 [1]: 410 nM
IC50 [2]: 380 nM
IC50 [3]: 220 nM

COc1cc(F)cc(C(=O)N[C@H]2CC[C@](F)(S(=O)(=O)c3cccc(C(F)(F)F)c3)CC2)c1 [Compound 82, 3-fluoro-N-((1R,4R)-4-fluoro-4-(3-(trifluoromethyl)phenylsulfonyl)cyclohexyl)-5-methoxybenzamide]
IC50 [1]: 3000 nM
IC50 [2]: 7490 nM
IC50 [3]: 1810 nM

O=C(N[C@H]1CC[C@](F)(S(=O)(=O)c2cccc(C(F)(F)F)c2)CC1)c1ccc(F)c(C(F)(F)F)c1 [Compound 83, 4-fluoro-N-((1R,4R)-4-fluoro-4-(3-(trifluoromethyl)phenylsulfonyl)cyclohexyl)-3-(trifluoromethyl)benzamide]
IC50 [1]: 480 nM
IC50 [2]: 2850 nM
IC50 [3]: 960 nM

O=C(N[C@H]1CC[C@@](F)(S(=O)(=O)c2cccc(C(F)(F)F)c2)CC1)c1cc(C(F)(F)F)ccn1 [Compound 84, N-((1S,4S)-4-fluoro-4-(3-(trifluoromethyl)phenylsulfonyl)cyclohexyl)-4-(trifluoromethyl)picolinamide]
IC50 [1]: 310 nM
IC50 [2]: 2870 nM
IC50 [3]: 650 nM
